{"source": "patent US20200123620A1", "about": "“MiRNA-574-5p AS A BIOMARKER FOR STRATIFICATION OF PROSTAGLANDIN E-DEPENDENT TUMORS” (priority 2017, published 2020)", "assay_type_in_all_cases": "cell-based, human", "key": {"[1]": {"system": "COX-2", "test": "COX-2 expression in transfected A549 cells (qRT-PCR, Western blot)", "settings": "mRNA and protein", "experimental": "CUGBP1 and GW182 were transiently depleted using siRNA oligonucleotides. 24 h prior to transfection, A549 cells were seeded at a density of 5×10^5 cells/well in a 6-well plate. 20 pmol/μl siRNA oligonucleotides were transfected using Lipofectamine 2000N (Invitrogen, Karlsruhe, GER) according to manufacturer's instructions. For GW182 knockdown, MISSION® siRNA SAS1_Hs01_00244664 (Sigma-Aldrich, Darmstadt. GER) were used, respectively. For CUGBP1 knockdown a previously published siRNA (5′-GCUGUUUAUUGGUAUGAUU-3′; SEQ ID NO:5) was used for our experiments. As control, a siRNA with an unspecific sequence was used (5′-UCUCUCACAACGGGCAUUU-3′; SEQ ID NO: 6). […] The efficiency of CUGBP1 and GW182 knockdown was determined by qRT-PCR, Western blot and immunofluorescence staining.\n(§1) 1 μg of DNase-treated RNA was used for reverse transcription using High-Capacity RNA-to-cDNA Kit (Applied Biosystems, ThermoFisher Scientific, Waltham, USA) according to manufacturer's instructions. […] 1 μl cDNA (1:2 diluted) was used per reaction. β-Actin was used as endogenous control to normalize variations in cDNA quantities in different samples.\n(§2) To obtain a whole cell lysate, A549 cells were lysed in T-PER™ tissue protein extraction reagent (Life Technologies, ThermoFisher Scientific, Waltham, USA) for 30 min at 4° C. […] The protein content was determined by Bradford assay (BioRad Laboratories, Hercules, USA). […]"}, "[2]": {"system": "A549 cells", "test": "MTT cell proliferation assay", "settings": "data not shown", "experimental": "For the detection of viable cells, an MTT (3-(4,5-dimethylthiazol-2-yl)-2,5-diphenyltetrazolium bromide) tetrazolium (Carl Roth, Karlsruhe, GER) reduction assay was performed. 24 h prior transfection, A549 cells were seeded at a density of 1×10^4 cells per well in 96-well plates. For the MTT reduction assay, 20 μl of 5 mg/ml MTT (in PBS) was added to the cells in culture and so incubated for 4 h. The medium was removed and 100 μl DMSO (Carl Roth, Karlsruhe, GER) was added. The quantity of formazan was measured by recording changes in the absorbance at 570 nm using a plate reading spectrophotometer. As a reference the wavelength of […] was used to correct for nonspecific background."}, "[3]": {"system": "mPGES-1", "test": "mPGES-1 expression in transfected A549 cells (qRT-PCR, Western blot)", "settings": "IL-1β 24 h, then 24 h stimulus-free medium", "experimental": "CUGBP1 and GW182 were transiently depleted using siRNA oligonucleotides. 24 h prior to transfection, A549 cells were seeded at a density of 5×10^5 cells/well in a 6-well plate. 20 pmol/μl siRNA oligonucleotides were transfected using Lipofectamine 2000N (Invitrogen, Karlsruhe, GER) according to manufacturer's instructions. For GW182 knockdown, MISSION® siRNA SAS1_Hs01_00244664 (Sigma-Aldrich, Darmstadt. GER) were used, respectively. For CUGBP1 knockdown a previously published siRNA (5′-GCUGUUUAUUGGUAUGAUU-3′; SEQ ID NO:5) was used for our experiments. As control, a siRNA with an unspecific sequence was used (5′-UCUCUCACAACGGGCAUUU-3′; SEQ ID NO: 6). Cells were harvested 24 h and 48 h after transfection. The efficiency of CUGBP1 and GW182 knockdown was determined by qRT-PCR, Western blot and immunofluorescence staining.\n24 h prior to transfection, A549 cells were seeded at a density of 5×10^5 per well in a 6-well plate. 20 pmol/μl miRIDIAN miR-574-5p mimics (HM10794, Sigma-Aldrich, Darmstadt, GER) or negative control (HMC0002, Sigma-Aldrich, Darmstadt, GER) were transfected using Lipofectamine 2000® according to the manufacturer's instructions. In the same way, the A549 cells were transfected with 40 pmol/μl miR-574-5p-LNA™ inhibitor (4101451-001) or negative control (199006-001, Exiqon, Kopenhagen, DEN) for the knockdown of miR-574-5p. The transfection efficiency was determined by qRT-PCR.\nas §1, §2"}}, "data": [{"substance": "5′-GCUGUUUAUUGGUAUGAUU-3′ (listed as RNA, chemistry not given here) [ΔCUGBP1]", "values": [{"measurement": "COX-2 level", "setting": "[1]", "value": "uninfluenced"}, {"measurement": "IL1β-induced cell proliferation of A549 cells", "setting": "[2]", "value": "enhanced"}, {"measurement": "mPGES-1 protein expression", "setting": "[3]; Western blot", "value": "strongly upregulated"}, {"measurement": "mPGES-1 3′UTR isoform expression", "setting": "[3]; qRT-PCR", "value": "further increases"}, {"measurement": "mPGES-1 mRNA expression", "setting": "[3]; qRT-PCR", "value": "significantly upregulates"}]}]}
